Data taken from US12616672B2, “Methods for assessing risk of cardiovascular disease and methods and compounds for use in treating or preventing cardiovascular disease” (Queen Mary University of London, priority 2017, dated 2026).
Several values for one entry are separate records, joined by “and”; a condition that tells them apart may be missing. Identical values can stand only once.

Assays:
[1] = test system: peripheral blood from healthy volunteers; assay: Human whole blood incubations (ACh, norepinephrine, cortisol), then lipid mediator profiling of plasma; format: cell-based; conditions: for production of n-3 DPA derived mediators in peripheral blood: norepinephrine 0.1-10 μM, cortisol 1-10 μM, healthy volunteers
Method: Plasma was obtained from peripheral blood of healthy volunteers and patients following centrifugation at 1500×g for 10 min at room temperature. Descending aortas were weighed, placed in ice-cold methanol and homogenized using a glass dounce.
All samples for LC-MS-MS-based profiling were extracted using solid-phase extraction columns as described in Dalli et al. 2013 and Rathod et al. 2017, the contents of which are incorporated herein by reference.
Prior to sample extraction, deuterated internal standards, representing each region in the chromatographic analysis (500 pg each) were added to facilitate quantification in 4V of cold methanol.
Samples were kept at −20° C. for a minimum of 45 min to allow protein precipitation.
Supernatants were subjected to solid phase extraction, methyl formate fraction collected, brought to dryness and suspended in phase (methanol/water, 1:1, vol/vol) for injection on a Shimadzu LC-20AD HPLC and a Shimadzu SIL-20AC autoinjector, paired with a triple quadrupole mass spectrometer with or without a linear ion trap.
An Agilent Poroshell 120 EC-C18 column (100 mm×4.6 mm×2.7 μm) was kept at 50° C. and mediators eluted using a mobile phase consisting of methanol-water-acetic acid of 20:80:0.01 (vol/vol/vol) that was ramped to 50:50:0.01 (vol/vol/vol) over 0.5 min and then to 80:20:0.01 (vol/vol/vol) from 2 min to 11 min, maintained till 14.5 min and then rapidly ramped to 98:2:0.01 (vol/vol/vol) for the next 0.1 min. This was subsequently maintained at 98:2:0.01 (vol/vol/vol) for 5.4 min, and the flow rate was maintained at 0.5 ml/min. Mass spectrometer was operated using a multiple reaction monitoring method as in Walker M E et al. 13-Series resolvins mediate the leukocyte-platelet actions of atorvastatin and pravastatin in inflammatory arthritis. FASEB J. 2017 August; 31(8):3636-3648, the contents of which are incorporated herein by reference.
Each LM was identified using established criteria including matching retention time to synthetic and authentic materials and at least six diagnostic ions (Walker M E et al. 2017. ibid.)
Calibration curves were obtained for each using synthetic compound mixtures at 0.78, 1.56, 3.12, 6.25, 12.5, 25, 50, 100, and 200 pg that gave linear calibration curves with an r^2 values of 0.98-0.99. […]

[2] = test system: peripheral blood leukocytes and platelets from CVD patients; assay: CVD patient whole blood incubated with RvD2n-3 DPA or RvD5n-3 DPA then PAF, flow cytometry; format: cell-based, human
[3] = test system: healthy volunteer peripheral blood neutrophils, monocytes and platelets; assay: Healthy volunteer whole blood incubated with RvDn-3 DPA then PAF, flow cytometry of activation markers; format: cell-based, human; conditions: vs PAF alone
Method: Blood was collected from healthy volunteers and incubated with RvD2n-3 DPA, RvD5n-3 DPA (0.1 nM, 1 nM or 10 nM) or vehicle (PBS) for 15 min (37° C.) then with PAF (100 ng/ml; 30 min; 37° C.). Cell activation and leukocyte-platelet aggregates were assessed using flow cytometry. (A,B) Representative histograms depicting neutrophil (A) CD11b and (B) CD62P expression. (C,D) Cumulative neutrophil ([…]) CD11b and (D) CD62P expression. (E,F) Monocyte (E) CD11b and (F) CD62P expression. Results are mean of n=5 per time point and expressed as percentage change from PAF incubated cells. *p<0.05 compared to PAF using one-sample t test, followed by Sidak correction of p values.
Blood was collected from healthy volunteers and incubated with RvD2n-3 DPA, RvD5n-3 DPA (0.1 nM, 1 nM or 10 nM) or vehicle (PBS) for 15 min (37° C.) then with PAF (100 ng/ml; 30 min; 37° C.). Cell activation and leukocyte-platelet aggregates were assessed using flow cytometry. (A,B) Images depicting platelet monocyte (A) and (B) platelet-neutrophil aggregates. Results are representative of n=3 distinct experiments. (C,D) Cumulative neutrophil (C) CD11b and (D) CD62P expression. (E,F) Monocyte (E) CD11b and (F) CD62P expression. Results are mean of n=5 per condition and expressed as percentage change from PAF incubated cells. *p<0.05 compared to PAF using Wilcoxon Signed Rank Test. (G) Platelet rich plasma was incubated with vehicle (PBS) or RvD5n-3 DPA 0.1-10 nM (15 min; 37° C.) and PAF (100 nM; 30 min; 37° C.). Adhesion molecule expression evaluated using flow cytometry. Results are mean±s.e.m. n=5 healthy volunteers. * p, 0.05 compared to Vehicle group using Friedman's test followed by Dunn's multiple comparisons test.
(§1) After stimulation, samples were washed twice with PBS for 12 min at 800×g. Samples were stained for flow cytometry as described below.
(§2) Whole blood was incubated with lineage-specific markers for 45 min (4° C., in DPBS containing 0.02% BSA). The following anti-human antibodies were used: VioBlue-anti-CD41, PE-Cy5-anti-CD62P, Brilliant Violet 711-anti-CD11b, APC-Cy7-anti-CD16, Alexa Fluor 647-anti-CD14. After staining, red blood cells were lysed using Whole Blood Lysing Reagent Kit, according to the manufacturer's instructions. Data was collected using a flow cytometer and analysis was conducted using appropriate software.

[4] = test system: peripheral blood leukocytes and platelets from CVD patients; assay: CVD patient whole blood incubated with RvD2n-3 DPA or RvD5n-3 DPA for 45 min, flow cytometry; format: cell-based, human; conditions: 45 min, no PAF
Method: FIG. 8: RvD2n-3 DPA and RvD5n-3 DPA reduce leukocyte activation in peripheral blood from CVD patients. Peripheral blood from patients diagnosed with cardiovascular disease (CVD) was collected at 9:00 h. […] Expression of CD62P on (A) neutrophils (B) monocytes and CD11b on (C) neutrophils and (D) monocytes was investigated using flow cytometry and fluorescently labelled antibodies.
as §2
In select experiments platelet adhesion molecule expression was assessed. Here platelets were incubated with fluorescently labelled mouse anti-human VioBlue-anti-CD41, PE-Cy5-anti-CD62P, PerCP/Cy5.5-anti-CD63 and FITC-ant-CD42b for 30 min at 4° C. Cells were then washed and fluorescence, staining evaluated using LSRFortessa cell analyser (BD Biosciences) and analysed using FlowJo software (Tree Star Inc., V10).

[5] = test system: peripheral blood leukocytes and platelets from CVD patients; assay: CVD patient whole blood incubated with RvD2n-3 DPA or RvD5n-3 DPA then PAF, flow cytometry; format: cell-based, human; conditions: 15 min then PAF 30 min
Method: (§3) Whole blood was incubated with RvD2n-3 DPA or RvD5n-3 DPA (0.1 nM, 1 nM or 10 nM) or vehicle (PBS containing 0.01% EtOH) for 15 min then with PAF (100 ng/ml) for 30 min (37° C.). Expression of CD62P on (A) neutrophils (B) monocytes and CD11b on (C) neutrophils and (D) monocytes was investigated using flow cytometry and fluorescently labelled antibodies. Results are mean±s.em. and expressed as percentage of PAF incubated cells. n=9 patients per interval. * p<0.05 vs Veh group using one-sample t test, followed by Sidak correction of p values.
as §3, with “labeled” for “labelled”, “group.” for “interval.”, “PAF” for “Veh”, “Wilcoxon Signed Rank Test.” for “one-sample t test, followed by Sidak correction of p values.”
as §1, §2

[6] = test system: peripheral blood from CVD patients; conditions: ADA 1U, 37° C., 20 min, then perfused 0.3 Pa
Method: (B) Peripheral blood from CVD patients was incubated with ADA (1U; 37° C.; 20 min) then perfused (0.3 Pa, 20 min, 37° C.). Plasma was collected and RvDn-3 DPA concentrations determined using LC/MS-MS based lipid mediator profiling. Results are mean±s.e.m. n=6 donors. *p<0.05, using paired Mann-Whitney test.
Using an automated syringe pump (Harvard Apparatus) connected to small-diameter tubing (1.6 mm inner diameter) and chamber slides (15μ-Slide VI^0.4, Ibidi), whole blood was perfused at a sheer rate of 0.1 dyne/cm^2 (low sheer rate) and at 0.3 dyne/cm^2 (high sheer rate) for 15 min. In selected experiment, blood was incubated with 10 nM Ach or 1 u of ADA for 20 min prior perfusing.

[7] = whole blood with ACh 0.1 μM, 45 min, 37° C., n = 9
[8] = whole blood with ACh 0.1 μM, 45 min, n = 9
[9] = whole blood with Cortisol 1 μM, 45 min, n = 5
[10] = whole blood with Cortisol 10 μM, 45 min, n = 5
[11] = 0.1, 1, 10 nM, 15 min then PAF 30 min
[12] = CVD patient whole blood, 0.1, 1, 10 nM

CC(=O)OCC[N+](C)(C)C [ACh, acetylcholine]
increase in RvD2n-3 DPA compared with blood incubated with vehicle alone ([1]; whole blood incubated with ACh): ~160%
7-HDPA concentration [1, 7]: 44.9 pg/mL and 44.9 ± 10.7 pg/mL
13-HDPA concentration [1, 7]: 1.9 pg/mL and 1.9 ± 0.6 pg/mL
14-HDPA concentration [1, 7]: 137.2 pg/mL and 137.2 ± 25.8 pg/mL
17-HDPA concentration [1, 7]: 58.9 pg/mL and 58.9 ± 13.2 pg/mL
DPA concentration [1, 7]: 3873.1 pg/mL and 3873.1 ± 706.3 pg/mL
MaR1n-3 DPA concentration [1, 7]: 0.9 pg/mL
PD1n-3 DPA concentration [1, 7]: 0.5 pg/mL
RvD1n-3 DPA concentration [1, 7]: 4.9 pg/mL
RvD2n-3 DPA concentration [1, 7]: 7.4 pg/mL
RvD5n-3 DPA concentration [1, 7]: 1.5 pg/mL
RvT1 concentration [1, 7]: 2.0 pg/mL
RvT2 concentration [1, 7]: 1.6 pg/mL
RvT3 concentration [1, 7]: 1.4 pg/mL
RvT4 concentration [1, 7]: 1.0 pg/mL
4HDHA concentration [1, 8]: 19.9 ± 5.1 pg/mL
5HEPE concentration [1, 8]: 42.7 ± 11.3 pg/mL
5HETE concentration [1, 8]: 69.9 ± 13.5 pg/mL
7HDHA concentration [1, 8]: 8.6 ± 3.7 pg/mL
12HEPE concentration [1, 8]: 402.4 ± 106.0 pg/mL
12HETE concentration [1, 8]: 5148.0 ± 1153.2 pg/mL
14HDHA concentration [1, 8]: 229.2 ± 41.2 pg/mL
15HEPE concentration [1, 8]: 31.3 ± 8.7 pg/mL
15HETE concentration [1, 8]: 336.4 ± 95.2 pg/mL
17HDHA concentration [1, 8]: 103.6 ± 25.9 pg/mL
18HEPE concentration [1, 8]: 36.2 ± 12.2 pg/mL
AA concentration [1, 8]: 24205.0 ± 4783.4 pg/mL
DHA concentration [1, 8]: 28104.0 ± 10103.4 pg/mL
EPA concentration [1, 8]: 5867.2 ± 713.2 pg/mL

C[C@]12CCC(=O)C=C1CC[C@@H]1[C@@H]2[C@@H](O)C[C@@]2(C)[C@H]1CC[C@]2(O)C(=O)CO [Cortisol, cortisol]
production of n-3 DPA derived mediators in peripheral blood [1]: did not significantly augment
7-HDPA concentration [1, 9]: 268.9 ± 83.5 pg/mL
13-HDPA concentration [1, 9]: 3.2 ± 0.7 pg/mL
14-HDPA concentration [1, 9]: 286.2 ± 91.0 pg/mL
17-HDPA concentration [1, 9]: 74.9 ± 18.2 pg/mL
DPA concentration [1, 9]: 24568.2 ± 6300.4 pg/mL
MaR1n-3 DPA concentration [1, 9]: 0.3 ± 0.2 pg/mL
PD1n-3 DPA concentration [1, 9]: 1.5 ± 1.1 pg/mL
RvD1n-3 DPA concentration [1, 9]: 1.9 ± 1.2 pg/mL
RvD2n-3 DPA concentration [1, 9]: 1.0 ± 0.9 pg/mL
RvD5n-3 DPA concentration [1, 9]: 1.1 ± 0.6 pg/mL
RvT1 concentration [1, 9]: 0.5 ± 0.2 pg/mL
RvT2 concentration [1, 9]: 0.1 ± 0.1 pg/mL
RvT3 concentration [1, 9]: 1.6 ± 0.5 pg/mL
RvT4 concentration [1, 9]: 2.7 ± 1.5 pg/mL
7-HDPA concentration [1, 10]: 257.8 ± 109.6 pg/mL
13-HDPA concentration [1, 10]: 3.0 ± 0.6 pg/mL
14-HDPA concentration [1, 10]: 241.0 ± 40.9 pg/mL
17-HDPA concentration [1, 10]: 71.5 ± 17.5 pg/mL
DPA concentration [1, 10]: 28823.5 ± 8019.0 pg/mL
MaR1n-3 DPA concentration [1, 10]: 0.2 ± 0.2 pg/mL
PD1n-3 DPA concentration [1, 10]: 2.5 ± 1.5 pg/mL
RvD1n-3 DPA concentration [1, 10]: 1.7 ± 1.5 pg/mL
RvD2n-3 DPA concentration [1, 10]: 1.2 ± 0.8 pg/mL
RvD5n-3 DPA concentration [1, 10]: 1.7 ± 0.3 pg/mL
RvT1 concentration [1, 10]: 0.6 ± 0.2 pg/mL
RvT2 concentration [1, 10]: 0.1 ± 0.0 pg/mL
RvT3 concentration [1, 10]: 2.2 ± 1.5 pg/mL
RvT4 concentration [1, 10]: 3.0 ± 1.8 pg/mL

CC/C=C\CC(O)C(O)/C=C/C=C/C=C\C=C\C(O)CCCCCC(=O)O (stereo not drawn) [RvD2n-3 DPA, 7,16,17-trihydroxy-8,10,12,14E,19Z-docosapentaenoic acid]
expression of CD62P on peripheral blood platelets [2]: dose-dependently regulated
expression of CD63 on peripheral blood platelets [2]: dose-dependently regulated
monocyte expression of CD11b [3, 11]: dose dependent decreases
monocyte expression of platelet marker CD62P [3, 11]: dose dependent decreases
neutrophil CD11b expression [3, 11]: dose dependent decreases
neutrophil-platelet aggregates measured as neutrophil CD62P expression [3, 11]: dose dependent decreases
decrease in monocyte CD41 expression ([3]; at 10 nM, n=5 donors): ~29%
decrease in neutrophil CD41 expression ([3]; at 10 nM, n=5 donors): ~20%
monocyte CD11b expression [4, 12]: without significantly regulating
neutrophil CD11b expression [4, 12]: without significantly regulating
platelet-monocyte aggregates [4, 12]: dose-dependently decreased
platelet-neutrophil aggregates [4, 12]: dose-dependently decreased
platelet CD62P expression ([4]; CVD patient whole blood): downregulated
platelet CD63 expression ([4]; CVD patient whole blood): downregulated
expression of CD11b on monocytes [5]: only in part shared
expression of CD11b on neutrophils [5]: only in part shared
platelet-monocyte aggregates measured as CD62P and CD41 expression [5]: decreases
platelet-neutrophil aggregates measured as CD62P and CD41 expression [5]: decreases

NC[C@H](O)c1ccc(O)c(O)c1 [norepinephrine]
production of n-3 DPA derived mediators in peripheral blood [1]: did not significantly augment

adenosine deaminase [ADA]
concentrations of RvDn-3 DPA in CVD patient blood [6]: increase
